Read-outs that look alike come from different tables or passages of the source.
Experiments:
K-562 = experiment: Inhibition of cells growth by colorimetric (SRB) assay, K-562; conditions: SRB assay, 48 hours exposure; for GI50: read-out: GI50 K-562; for CC50: read-out: LC50 K-562
Procedure, shortened: (§1)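 Human tumour cells seeded at 5×10^3/well in RPMI 1640 10% FBS, attached 18 h, then exposed 48 h to samples at 10 to 10^−8 μg/ml in DMSO/EtOH/PBS (0.5:0.5:99). Growth read by SRB staining after TCA fixation, OD 490 nm, triplicate wells; GI, TGI and LC derived.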

A-549 = experiment: Inhibition of cells growth by colorimetric (SRB) assay, A-549; conditions: SRB assay, 48 hours exposure; for GI50: read-out: GI50 A-549; for CC50: read-out: LC50 A-549
Procedure, shortened: as §1

SK-MEL-28 = experiment: Inhibition of cells growth by colorimetric (SRB) assay, SK-MEL-28; conditions: SRB assay, 48 hours exposure; for GI50: read-out: GI50 MEL-28; for CC50: read-out: LC50 MEL-28
Procedure, shortened: as §1

HT-29 = experiment: Inhibition of cells growth by colorimetric (SRB) assay, HT-29; conditions: SRB assay, 48 hours exposure; for GI50: read-out: GI50 HT-29
Procedure, shortened: as §1

LoVo = experiment: Inhibition of cells growth by colorimetric (SRB) assay, LoVo; conditions: SRB assay, 48 hours exposure; for GI50: read-out: GI50 LOVO; for CC50: read-out: LC50 LOVO
Procedure, shortened: as §1

LoVo-Dox = experiment: Inhibition of cells growth by colorimetric (SRB) assay, LoVo-Dox; conditions: SRB assay, 48 hours exposure; for GI50: read-out: GI50 LOVO-DOX
Procedure, shortened: as §1

DU-145 = experiment: Inhibition of cells growth by colorimetric (SRB) assay, DU-145; conditions: SRB assay, 48 hours exposure; for GI50: read-out: GI50 DU-145; for CC50: read-out: LC50 DU-145
Procedure, shortened: as §1

LNCaP = experiment: Inhibition of cells growth by colorimetric (SRB) assay, LNCaP
Procedure, shortened: as §1

SK-BR-3 = experiment: Inhibition of cells growth by colorimetric (SRB) assay, SK-BR-3; conditions: SRB assay, 48 hours exposure; for GI50: read-out: GI50 SK-BR-3; for CC50: read-out: LC50 SK-BR-3
Excerpt: (§2) The finality of these assays is to interrupt the growth of a “in vitro” tumor cell culture by means a continued exhibition of the cells to the sample to be testing.
(§3) This form of the assay employs 96 well cell culture microplates of 9 mm diameter (Faircloth, 1988; Mosmann, 1983). Most of the cell lines are obtained from American Type Culture Collection (ATCC) derived from different human cancer types.
(§4) Cells are maintained in RPMI 1640 10% FBS, supplemented with 0.1 g/l penicillin and 0.1 g/l streptomycin sulphate and then incubated at 37° C., 5% CO2 and 98% humidity. For the experiments, cells were harvested from subconfluent cultures using trypsin and resuspended in fresh medium before plating.
(§5) Cells are seeded in 96 well microtiter plates, at 5×10^3 cells per well in aliquots of 195 μl medium, and they are allowed to attach to the plate surface by growing in drug free medium for 18 hours. Afterward, samples are added in aliquots of 5 μl in a ranging from 10 to 10^−8 μg/ml, dissolved in DMSO/EtOH/PBS (0.5:0.5:99). After 48 hours exposure, the antitumor effect are measured by the SRB methodology: cells are fixed by adding 50 μl of cold 50% (wt/vol) trichloroacetic acid (TCA) and incubating for 60 minutes at 4° C. Plates are washed with deionized water and dried. One hundred μl of SRB solution (0.4% wt/vol in 1% acetic acid) is added to each microtiter well and incubated for 10 minutes at room temperature. Unbound SRB is removed by washing with 1% acetic acid. Plates are air dried and bound stain is solubilized with Tris buffer. Optical densities are read on a automated spectrophotometric plate reader at a single wavelength of 490 nm.
(§6) The values for mean +/−SD of data from triplicate wells are calculated. Some parameters for cellular responses can be calculated: GI=growth inhibition, TGI=total growth inhibition (cytostatic effect) and LC=cell killing (cytotoxic effect).

IGROV-1 = experiment: Inhibition of cells growth by colorimetric (SRB) assay, IGROV-1; conditions: SRB assay, 48 hours exposure; for GI50: read-out: GI50 IGROV
Procedure, shortened: as §1

IGROV-ET = experiment: Inhibition of cells growth by colorimetric (SRB) assay, IGROV-ET; conditions: SRB assay, 48 hours exposure; for GI50: read-out: GI50 IGROV-ET; for CC50: read-out: LC50 IGROV-ET
Procedure, shortened: as §1

SK-OV-3 = experiment: Inhibition of cells growth by colorimetric (SRB) assay, SK-OV-3; conditions: for CC50: read-out: LC50 SKOV-3
Procedure, shortened: as §1

PANC-1 = experiment: Inhibition of cells growth by colorimetric (SRB) assay, PANC-1; conditions: SRB assay, 48 hours exposure; for GI50: read-out: GI50 PANC-1
Procedure, shortened: as §1

HMEC1 = experiment: Inhibition of cells growth by colorimetric (SRB) assay, HMEC1; conditions: SRB assay, 48 hours exposure; for TGI H-MEC-1: in M (unit assumed); for GI50: read-out: GI50 H-MEC-1; for CC50: read-out: LC50 H-MEC-1
Excerpt: as §2, §3, §4, §5, §6

Nc1nccc(-c2c3cc4ccccc4nc3n3c(N)nccc23)n1 [Compound 19a]
TGI K-562 (K-562): 6.42E−06
GI50 (K-562): 1780 nM
CC50 (K-562): 25000 nM
TGI A-549 (A-549): 7.64E−06
GI50 (A-549): 3240 nM
CC50 (A-549): 18000 nM
TGI MEL-28 (SK-MEL-28): 5.16E−06
GI50 (SK-MEL-28): 1460 nM
CC50 (SK-MEL-28): 13100 nM
TGI HT-29 (HT-29): 3.05E−05
GI50 (HT-29): 1940 nM
TGI LOVO (LoVo): 2.74E−06
GI50 (LoVo): 467 nM
CC50 (LoVo): 11100 nM
TGI LOVO-DOX (LoVo-Dox): 7.51E−06
GI50 (LoVo-Dox): 1030 nM
TGI DU-145 (DU-145): 7.94E−07
GI50 (DU-145): 3.05 nM
CC50 (DU-145): 3790 nM
TGI LN-caP (LNCaP; SRB assay, 48 hours exposure): 2.18E−06
GI50 (LNCaP; read-out: GI50 LN-caP, SRB assay, 48 hours exposure): 736 nM
CC50 (LNCaP; read-out: LC50 LN-caP, SRB assay, 48 hours exposure): 22500 nM
TGI SK-BR-3 (SK-BR-3): 1.68E−06
GI50 (SK-BR-3): 477 nM
CC50 (SK-BR-3): 8580 nM
TGI IGROV (IGROV-1): 9.56E−06
GI50 (IGROV-1): 1850 nM
TGI IGROV-ET (IGROV-ET): 4.98E−06
GI50 (IGROV-ET): 1410 nM
CC50 (IGROV-ET): 14500 nM
TGI SKOV-3 (SK-OV-3; SRB assay, 48 hours exposure): 4.67E−06
GI50 (SK-OV-3; read-out: GI50 SKOV-3, SRB assay, 48 hours exposure): 1140 nM
CC50 (SK-OV-3; SRB assay, 48 hours exposure): 21800 nM
TGI PANC-1 (PANC-1): 1.41E−05
GI50 (PANC-1): 3450 nM
TGI H-MEC-1 (HMEC1): 6.72E−07
GI50 (HMEC1): 123 nM
CC50 (HMEC1): 3820 nM

CCOc1nccc(-c2c3cccnc3n3c(N)nccc23)n1 [Compound 77]
TGI K-562 (K-562): 3.26E−05
GI50 (K-562): 1210 nM
CC50 (K-562): ≥ 32600 nM
TGI A-549 (A-549): 3.26E−05
GI50 (A-549): ≥ 32600 nM
CC50 (A-549): > 32600 nM
TGI MEL-28 (SK-MEL-28): 9.24E−07
GI50 (SK-MEL-28): 398 nM
CC50 (SK-MEL-28): 2160 nM
TGI HT-29 (HT-29): 3.26E−06
GI50 (HT-29): 829 nM
CC50 (HT-29; read-out: LC50 HT-29): 3260 nM
TGI LOVO (LoVo): 2.02E−06
GI50 (LoVo): 629 nM
CC50 (LoVo): ≥ 32600 nM
TGI LOVO-DOX (LoVo-Dox): 2.79E−06
GI50 (LoVo-Dox): 702 nM
CC50 (LoVo-Dox; read-out: LC50 LOVO-DOX): 15100 nM
TGI DU-145 (DU-145): 1.68E−06
GI50 (DU-145): 630 nM
CC50 (DU-145): 27800 nM
GI50 (LNCaP; Homo sapiens, LNCaP, 48 h, read-out: GI50 LN-caP, SRB assay, 48 hours exposure): 617 nM
CC50 (LNCaP; Homo sapiens, LNCaP, 48 h, read-out: LC50 LN-caP, SRB assay, 48 hours exposure): 2960 nM
TGI LN-caP (LNCaP; SRB assay, 48 hours exposure): 1.35E−06
TGI SK-BR-3 (SK-BR-3): 1.34E−06
GI50 (SK-BR-3): 643 nM
CC50 (SK-BR-3): 2790 nM
TGI IGROV (IGROV-1): 2.74E−06
GI50 (IGROV-1): 1300 nM
CC50 (IGROV-1; read-out: LC50 IGROV): ≥ 32600 nM
TGI IGROV-ET (IGROV-ET): 1.61E−06
GI50 (IGROV-ET): 555 nM
CC50 (IGROV-ET): ≥ 32600 nM
GI50 (SK-OV-3; Homo sapiens, SK-OV-3, 48 h, read-out: GI50 SKOV-3, SRB assay, 48 hours exposure): 1300 nM
TGI SKOV-3 (SK-OV-3; SRB assay, 48 hours exposure): 3.26E−06
CC50 (SK-OV-3; SRB assay, 48 hours exposure): 3260 nM
TGI PANC-1 (PANC-1): 7.80E−06
GI50 (PANC-1): 1160 nM
CC50 (PANC-1; read-out: LC50 PANC-1): ≥ 32600 nM
TGI H-MEC-1 (HMEC1): 3.21E−07
GI50 (HMEC1): 206 nM
CC50 (HMEC1): 1260 nM
